Marks after values point to notes of the source that are not given here.
Key:
[1] = tested on: PMM2-CDG patients; assay: Urine polyols (sorbitol, mannitol) in patients on epalrestat; type: in vivo, human; conditions: for Urine Sorbitol: normal <5; for Urine Mannitol: normal < 20
Source text: (§1) The primary objective of the study was to assess the efficacy and safety of epalrestat treatment in 3 PMM2-CDG pediatric subjects prior to a planned Phase III clinical trial (Oral epalrestat therapy in Pediatric Subjects with PMM2-CDG, NCT04925960). The secondary objective was to assess the ability of epalrestat to improve clinically relevant aspects of PMM2-CDG such as increased urine polyols (sorbitol, mannitol), abnormal glycosylation (carbohydrate deficient transferrin), abnormal coagulation (ATIII=antithrombin III), impaired liver function (ALT=Alanine Transaminase, AST=Aspartate Transaminase), neurologic function (Brief Ataxia Rating Scale=BARS), severity of phenotype (Nijmegen Pediatric CDG Rating Scale=NPCRS). The ability of epalrestat to inhibit polyol production was monitored by evaluating urine polyol levels (sorbitol, mannitol), which are elevated in PMM2-CDG. Next, carbohydrate deficient transferrin, which is abnormal in PMM2-CDG, was evaluated in order to assess improvement of glycosylation following epalrestat treatment. CDT mono-oligo/dioligo ratio and a-oligo/dioligo ratio are used to evaluate glycosylation abnormalities. Transferrin normally occurs with two glycan chains (di-oligo). In the case of glycosylation abnormalities, glycan chains are missing (A-oligo transferrin has no glycan chains, mono-oligo has one glycan chain, di-oligo has two glycan chains). The higher ratio of a-oligo/di-oligo and mono-oligo/di-oligo indicate glycosylation abnormalities are present. Therefore, improvement in a-oligo/di-oligo and mono-oligo/di-oligo ratios can be used to monitor improvement or worsening of glycosylation status. Changes in the liver enzymes AST, ALT, which are frequently elevated in PMM2-CDG, were monitored both as part of a safety study and as part of monitoring clinical improvement in coagulation. Neurologic improvement was assessed by modified BARS scores in 2 patients (3rd patient was not eligible for the test due to age at the start of the trial). NPCRS was assessed at every visit to assess changes in the severity of the patients' phenotype. Additionally, the frequency of adverse events, changes in vital signs, complete blood count, and changes in BMI were monitored.
(§2) Two patients were started on epalrestat on single patient investigational new drug (IND) (P5 IRB: 19-010017; IND #145262; P6 Protocol PMM2-CDG-001/A). Epalrestat was initiated on the parents' own initiative in the third patient (P7). Two patients were in their second year of epalrestat treatment, while the third, was in the 3rd year of treatment. Physical, neurological, and biochemical examinations were performed in 3 PMM2-CDG patients at baseline, and at every three months after the start of the epalrestat treatment. Patients underwent NPCRS phenotype severity assessment and biological sampling at every visit. Epalrestat (Ono Pharmaceuticals, Osaka, Japan) was taken orally 3 times per day (TID) before meals in a divided dose, with dosage escalation throughout the treatment. The pharmacological profile of epalrestat was as described elsewhere (Ligezka et al, Ann. Neurol., 90(6):887-900 (2021)). The starting dosage in P5 and P6 was 0.8 mg/kg/day, while P7 was started on 0.5 mg/kg/day due to their young age. P7 dosage was increased to 0.8 mg/day after a month, once safety was established. Blood and urine samples were collected routinely. Urine polyols, carbohydrate deficient transferrin (CDT), anti-thrombin III (ATIII), liver enzymes (ALT, AST), and complete blood count (CBC) were performed. Modified Brief Ataxia Rating Scale was used to assess ataxia in the 2 patients (P5, P6; P7 was not eligible for the test due to age). The modified BARS scale included Archimedes spiral test, but not the abnormalities of the ocular pursuit system and the scale range was 0-54. Goal attainment scale (GAS) was administered as described per study protocol (ClinicalTrials.gov Identifier: NCT04199000). […]

[2] = tested on: PMM2-CDG patients; assay: Safety and tolerability of epalrestat in pediatric patients; type: in vivo, human
Method: The primary objective of the study was to assess the efficacy and safety of epalrestat treatment in 3 PMM2-CDG pediatric subjects prior to a planned Phase III clinical trial (Oral epalrestat therapy in Pediatric Subjects with PMM2-CDG, NCT04925960). […] The ability of epalrestat to inhibit polyol production was monitored by evaluating urine polyol levels (sorbitol, mannitol), which are elevated in PMM2-CDG. Next, carbohydrate deficient transferrin, which is abnormal in PMM2-CDG, was evaluated in order to assess improvement of glycosylation following epalrestat treatment. […] Changes in the liver enzymes AST, ALT, which are frequently elevated in PMM2-CDG, were monitored both as part of a safety study and as part of monitoring clinical improvement in coagulation. Neurologic improvement was assessed by modified BARS scores in 2 patients (3rd patient was not eligible for the test due to age at the start of the trial). NPCRS was assessed at every visit to assess changes in the severity of the patients' phenotype. Additionally, the frequency of adverse events, changes in vital signs, complete blood count, and changes in BMI were monitored. […]

[3] = tested on: pmm2 mutant zebrafish; assay: Zebrabox motility assay; type: in vivo
Method: Zebrabox Motility Assay Progeny of a pmm2^sa1050/+ (pmm2^m/+) mating were collected and raised in the light following standard protocols. […] Embryos were also fed a small number of rotifers daily once behavioral readings were completed. Locomotor activity (swim paths, speeds) was monitored for ten-minute intervals from 6-10 dpf using the Zebrabox System (ViewPoint Inc., Toronto, Canada). Data was analyzed and graphed using GraphPad Prism.
Then, both wt and pmm2 mutant zebrafish were treated with 20 µM daily epalrestat, which increased the distance swam and the number of swim events initiated in the pmm2 mutant zebrafish (FIG. 5 C,D). The improvement was most significant at 6 dpf and 7 dpf (FIG. 5 C,D).

[4] = tested on: PMM2-CDG; conditions: Ligezka et al 2021; cited from earlier work
[5] = tested on: pmm2 mutant zebrafish; assay: Viability of treated zebrafish; type: in vivo
[6] = tested on: PMM2-CDG patients; assay: Carbohydrate deficient transferrin (CDT) in patients on epalrestat; type: in vivo, human; conditions: for CDT a-oligo/di-oligo ratio: C < 0.011; for CDT mono-oligo/di-oligo ratio: C < 0.06
Source text: as §1, §2

[7] = tested on: PMM2-CDG patients; assay: Nijmegen Pediatric CDG Rating Scale (NPCRS) in patients on epalrestat; type: in vivo, human
Source text: as §1, §2

[8] = P6, Baseline column: first available results 3 months after starting treatment, 0.8 mg/kg day
[9] = 20 μM daily (printed 20 M), pmm2 mutant
[10] = P7, Baseline column: first available results 3 months after starting treatment, 0.5, 0.8 mg/kg day

CC(/C=C1\SC(=S)N(CC(=O)O)C1=O)=C\c1ccccc1 [epalrestat]
Urine Sorbitol ([1]; P5, 12 months, 1.5 mg/kg day, baseline 19.9): 10.7 mmol/mol Cr
Urine Mannitol ([1]; P5, 12 months, 1.5 mg/kg day, baseline 648.6): 32.6 mmol/mol Cr
Urine Sorbitol ([1]; P5, 24 months, 2 mg/kg day, baseline 19.9): 7.5 mmol/mol Cr
Urine Mannitol ([1]; P5, 24 months, 2 mg/kg day, baseline 648.6): 45.3 mmol/mol Cr
Urine Sorbitol ([1]; P5, 28 months, 3 mg/kg day, baseline 19.9): 7.86 mmol/mol Cr
Urine Mannitol ([1]; P5, 28 months, 3 mg/kg day, baseline 648.6): 93.19 mmol/mol Cr
urine mannitol during treatment ([1]; P5, underwent a fructose loading test): A fluctuation in mannitol
urine polyol levels ([1]; P5-P7, words): decreased
urine polyol levels during treatment ([1]; P5-P7, words): remained mostly stable
Urine Sorbitol ([1]; P6, 12 months, 1.5 mg/kg day): 12.81 mmol/mol Cr
Urine Mannitol ([1]; P6, 12 months, 1.5 mg/kg day): 14.77 mmol/mol Cr
Urine Sorbitol ([1]; P6, 18 months, 3 mg/kg day): 9 mmol/mol Cr
Urine Mannitol ([1]; P6, 18 months, 3 mg/kg day): 47 mmol/mol Cr
Urine Sorbitol [1, 8]: 50.80# mmol/mol Cr
Urine Mannitol [1, 8]: 23.90# mmol/mol Cr
Urine Sorbitol ([1]; P7, 12 months, 1.5 mg/kg day, baseline 9.85): 0.03 mmol/mol Cr
Urine Mannitol ([1]; P7, 12 months, 1.5 mg/kg day, baseline 10.37): 1.89 mmol/mol Cr
tolerability of escalating doses ([2]; three pediatric patients P5-7): well-tolerated
side-effects ([2]; three pediatric patients P5-7, oral TID, long-term): No side-effects were observed
swimming behavior ([3]; 10 μM daily, wt and pmm2 mutant): no improvement in swimming behavior
distance swam [3, 9]: increased
number of swim events initiated [3, 9]: significantly increased
swimming distance at 6 dpf and 7 dpf ([3]; 20 μM daily, pmm2 zebrafish, wt n=42-46, pmm2 n=22-51): significantly increased
glycosylation in vivo [4]: improved glycosylation
viability, treated vs untreated [5]: no significant difference
CDT a-oligo/di-oligo ratio ([6]; P5, 12 months, 1.5 mg/kg day, baseline 0.005): 0.003
CDT mono-oligo/di-oligo ratio ([6]; P5, 12 months, 1.5 mg/kg day, baseline 0.09): 0.06
CDT a-oligo/di-oligo ratio ([6]; P5, 24 months, 2 mg/kg day, baseline 0.005): 0.010
CDT mono-oligo/di-oligo ratio ([6]; P5, 24 months, 2 mg/kg day, baseline 0.09): 0.09
CDT a-oligo/di-oligo ratio ([6]; P5, 28 months, 3 mg/kg day, baseline 0.005): 0.08
CDT mono-oligo/di-oligo ratio ([6]; P5, 28 months, 3 mg/kg day, baseline 0.09): 0.07
CDT ([6]; P5, words): Normalization of CDT
CDT a-oligo/di-oligo ratio ([6]; P6, 12 months, 1.5 mg/kg day, baseline 0.196): 0.111
CDT mono-oligo/di-oligo ratio ([6]; P6, 12 months, 1.5 mg/kg day, baseline 0.69): 0.43
CDT a-oligo/di-oligo ratio ([6]; P6, 18 months, 3 mg/kg day, baseline 0.196): 0.105
CDT mono-oligo/di-oligo ratio ([6]; P6, 18 months, 3 mg/kg day, baseline 0.69): 0.47
CDT ([6]; P6, 18 months, escalating doses, words): significant improvement in CDT with a steady trend towards normalization
CDT a-oligo/di-oligo ratio ([6]; P7, 12 months, 1.5 mg/kg day): 1.033
CDT mono-oligo/di-oligo ratio ([6]; P7, 12 months, 1.5 mg/kg day): 1.58
CDT a-oligo/di-oligo ratio [6, 10]: 0.919#
CDT mono-oligo/di-oligo ratio [6, 10]: 1.60#
CDT ([6]; P7, one-year mark, words): slight improvement
CDT ([6]; overall, words): improvement
Total NPCRS (max 78) ([7]; P5, 12 months, 1.5 mg/kg day, baseline 24): 20
Total NPCRS (max 78) ([7]; P5, 24 months, 2 mg/kg day, baseline 24): 18
Total NPCRS (max 78) ([7]; P5, 28 months, 3 mg/kg day, baseline 24): 18
Phenotype severity (NPCRS) ([7]; P5, P7 improved, words): improvement was noted in 2 out of 3 patients
Total NPCRS (max 78) ([7]; P6, 12 months, 1.5 mg/kg day, baseline 19): 19
Total NPCRS (max 78) ([7]; P6, 18 months, 3 mg/kg day, baseline 19): 18
Total NPCRS (max 78) ([7]; P7, 12 months, 1.5 mg/kg day, baseline 18): 15

— patent US20260335294A1, “TREATING CONGENITAL DISORDERS OF GLYCOSYLATION” (Mayo Foundation for Medical Education and Research, priority 2022, published 2026)
